The structures appear in SMILES notation.

Common to all, as to format: biochemical
One test addresses T1, Human PKK (Homo sapiens, UniProt P03952).
T1 construct: purchased Enzyme Research Laboratories
Kind of test: Inhibition of PKK using an endpoint assay (human PKK). The following applies: fluorogenic substrate H-Pro-Phe-Arg-AMC, 1 h room temperature, method names human or rat PKK, table does not say which. An outline of the steps: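 Endpoint fluorescence (ex 355 nm, em 460 nm) after stopping with 1 μM final PPACK II. Buffer: Tris 100 mM pH 7.8, NaCl 150 mM, BSA 0.1%, Tween20 0.05%, with 1% DMSO present; enzyme is human plasma kallikrein.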

In test [1] the target is T2, PKK in kaolin activated human platelet poor plasma (Homo sapiens, UniProt P03952).
T2 construct: Platelet poor plasma (PPP) obtained from human wholeblood; from tissue
Kind of test: Inhibition of PKK in kaolin activated human PPP.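 Further: readout is the rate of fluorogenic substrate cleavage in rfu per min.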 The following applies: 25-750 μg/mL kaolin, global fit, text b200 calls the values IC90. As to the method:
Platelet poor plasma (PPP) obtained from human wholeblood, anticoagulated with Na-Citrate, is incubated with various concentrations of the test compound together with either 25, 75, 250, or 750 μg/mL kaolin in assay buffer for 20 min at 37° C. such that for each kaolin dose used a concentration response is obtained for the test compound.

The next test addresses T3, human TK1 (Homo sapiens, UniProt P06870).
T3 construct: purchased R&D Systems
Kind of test: Inhibition of TK1 (Ki). The following applies: activated human TK1, substrate H-Pro-Phe-Arg-AMC, 24° C. As to the method:
The ability of compounds of formula (I) to inhibit plasma kallikrein (PKK), Factor XIIa (FXIIa), Factor XIa (FXIa), Factor Xa (FXa), Factor IIa (alpha-thrombin; FIIa), plasmin, trypsin, tissue kallikrein 1 (TK1), Factor VIIa (FVIIa), or FVIIa complexed with Tissue Factor, phospholipids and CaCl2 (FVIIa/TF/PL/CaCl2) is determined using the following biochemical assays in assay buffer (100 mM Tris, 150 mM NaCL, adjusted to a pH of 7.8 with HCl, and containing 0.1% (w/v) BSA and 0.05% (v/v) Tween20) in the presence of 1% (v/v) DMSO:
Prior to the assay, human TK1 (R&D Systems) is activated by incubation with human trypsin (Calbiochem) in a 1:10,000 ratio for 15 min at 37° C. For assaying TK1 inhibitory activity, activated TK1 (31.25 nM or 1 U/mL) is incubated at 24° C. with 0.1 mM fluorogenic substrate H-Pro-Phe-Arg-AMC (11295 from Bachem) and various concentrations of the test compound in assay buffer. Measurements are performed in a kinetic interval every 2nd minute for 16 min using a Spectramax M5 (Molecular Devices) with the following settings of the wavelength excitation of 350 nm and wavelength emission of 450 nm.
The pIC50 values are then fitted using a four-parametric fitting procedure using GraphPad Prism (version 6; GraphPad Software, Inc.). Respective Ki values are obtained by correction of the IC50 values for the respective KM value of the used substrate (see Table A for the obtained KM values of the used substrates) using the following formula:
[formula] Where the IC50 is in molar and the KM value in mM.

T2 sequence (P03952 391-638 limits assumed): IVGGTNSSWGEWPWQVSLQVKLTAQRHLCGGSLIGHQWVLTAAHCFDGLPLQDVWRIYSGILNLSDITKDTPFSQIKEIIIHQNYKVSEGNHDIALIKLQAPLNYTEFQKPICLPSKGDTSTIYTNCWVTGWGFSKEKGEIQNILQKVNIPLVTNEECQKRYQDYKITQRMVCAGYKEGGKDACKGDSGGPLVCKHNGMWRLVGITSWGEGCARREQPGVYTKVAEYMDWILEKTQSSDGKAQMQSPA
T2 sequence (P03952 20-390 limits assumed): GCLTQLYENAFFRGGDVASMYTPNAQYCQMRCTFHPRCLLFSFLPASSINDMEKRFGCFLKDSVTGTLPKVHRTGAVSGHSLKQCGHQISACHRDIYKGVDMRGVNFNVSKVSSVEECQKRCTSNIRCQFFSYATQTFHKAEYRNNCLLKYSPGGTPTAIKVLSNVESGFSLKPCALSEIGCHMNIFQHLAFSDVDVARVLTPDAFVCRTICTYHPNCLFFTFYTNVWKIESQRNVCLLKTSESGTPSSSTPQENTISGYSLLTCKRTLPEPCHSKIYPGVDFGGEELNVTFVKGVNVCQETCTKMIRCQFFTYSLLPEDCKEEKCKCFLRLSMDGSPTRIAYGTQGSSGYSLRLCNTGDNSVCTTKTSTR
T3 sequence (P06870 25-262): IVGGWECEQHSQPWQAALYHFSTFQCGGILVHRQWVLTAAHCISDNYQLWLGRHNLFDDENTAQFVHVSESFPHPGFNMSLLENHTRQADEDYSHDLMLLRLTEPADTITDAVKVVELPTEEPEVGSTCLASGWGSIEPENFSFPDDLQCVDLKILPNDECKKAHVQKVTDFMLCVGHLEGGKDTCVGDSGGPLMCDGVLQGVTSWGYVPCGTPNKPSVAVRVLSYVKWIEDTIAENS
T1 sequence (P03952 20-390 limits assumed): as the sequence (P03952 20-390 limits assumed) above
T1 sequence (P03952 391-638 limits assumed): as the sequence (P03952 391-638 limits assumed) above

As to `Cn1cnc2c1CC[C@H]2NC(=O)c1cnn(Cc2ccc(N3CC4(CC4)C3)nc2C(F)F)c1` [Example 52, 1-[(6-{5-Azaspiro[2.3]hexan-5-yl}-2-(difluoromethyl)-pyridin-3-yl)methyl]-N-[(4R)-1-methyl-1H,4H,5H,6H-cyclopenta[d]imidazol-4-yl]-1H-pyrazole-4-carboxamide], the IC50 on Human PKK was 1.1 nM; in test [1], 155 nM. The compound also showed a Ki on human TK1 greater than 10000 nM.
Regarding `CCc1nc(N2CC3CC3C2)ccc1Cn1cnc(C(=O)N[C@@H]2CCc3c2ncn3C)c1` (stereo partly drawn) [Example 75, 1-[(6-{3-Azabicyclo[3.1.0]hexan-3-yl}-2-ethylpyridin-3-yl)methyl]-N-[(4R)-1-methyl-1H,4H,5H,6H-cyclopenta[d]imidazol-4-yl]-1H-imidazole-4-carboxamide], the IC50 at Human PKK was 0.5 nM; in test [1], 192 nM. On human TK1, this compound had a Ki greater than 10000 nM.
For `Cn1cnc2c1CC[C@H]2NC(=O)c1cnn(Cc2ccc(N3CC4C(C3)C4(F)F)nc2)c1` (stereo partly drawn) [Example 80, 1-[(6-{6,6-Difluoro-3-azabicyclo[3.1.0]hexan-3-yl}pyridin-3-yl)methyl]-N-[(4R)-1-methyl-1H,4H,5H,6H-cyclopenta[d]imidazol-4-yl]-1H-pyrazole-4-carboxamide], the IC50 was 4.7 nM on Human PKK and 495 nM in test [1]. On human TK1, this compound came in with a Ki greater than 10000 nM.
Take `Cn1cnc2c1CC[C@H]2NC(=O)c1cnn(Cc2ccc(N3CC4CC4C3)nc2CO)c1` (stereo partly drawn) [Example 86, 1-[(6-{3-Azabicyclo[3.1.0]hexan-3-yl}-2-(hydroxymethyl)-pyridin-3-yl)methyl]-N-[(4R)-1-methyl-1H,4H,5H,6H-cyclopenta[d]imidazol-4-yl]-1H-pyrazole-4-carboxamide]: the results for the IC50 (on Human PKK; in test [1]) were 1.2 nM and 597 nM, respectively. On human TK1, this compound returned a Ki greater than 10000 nM.
Consider `Cc1nc(N2CC3C(C2)C3(F)F)ccc1Cn1cc(C(=O)N[C@@H]2CCc3c2ncn3C)cn1` (stereo partly drawn) [Example 90, 1-[(6-{6,6-Difluoro-3-azabicyclo[3.1.0]hexan-3-yl}-2-methylpyridin-3-yl)methyl]-N-[(4R)-1-methyl-1H,4H,5H,6H-cyclopenta[d]imidazol-4-yl]-1H-pyrazole-4-carboxamide], for which the IC50 came to 0.7 nM against Human PKK and 126 nM in test [1]. Also, the Ki on human TK1 was greater than 10000 nM.
Regarding `Cc1nc(N2CC3C(C2)C3(F)F)ccc1Cn1cc(C(=O)N[C@@H]2CCc3c2ncn3C)c(CO)n1` (stereo partly drawn) [Example 107, 1-[(6-{6,6-Difluoro-3-azabicyclo[3.1.0]hexan-3-yl}-2-methylpyridin-3-yl)methyl]-3-(hydroxymethyl)-N-[(4R)-1-methyl-1H,4H,5H,6H-cyclopenta[d]imidazol-4-yl]-1H-pyrazole-4-carboxamide], the IC50 stood at 1 nM on Human PKK and 324 nM in test [1]. For the same compound, on human TK1, the Ki was greater than 10000 nM.
Taken in the same sequence, the figures for `Cn1cnc2c1CC[C@H]2NC(=O)c1cn(Cc2ccc(N3CC4CC4C3)nc2F)cn1` (stereo partly drawn) [Example 108, 1-[(6-{3-Azabicyclo[3.1.0]hexan-3-yl}-2-fluoropyridin-3-yl)methyl]-N-[(4R)-1-methyl-1H,4H,5H,6H-cyclopenta[d]imidazol-4-yl]-1H-imidazole-4-carboxamide] were 1.7 nM, 465 nM and greater than 10000 nM.
Turning to `CCCc1nc(N2CC3CC3C2)ccc1Cn1cnc(C(=O)N[C@@H]2CCc3c2ncn3C)c1` (stereo partly drawn) [Example 110, 1-[(6-{3-Azabicyclo[3.1.0]hexan-3-yl}-2-propylpyridin-3-yl)methyl]-N-[(4R)-1-methyl-1H,4H,5H,6H-cyclopenta[d]imidazol-4-yl]-1H-imidazole-4-carboxamide], the IC50 is 0.9 nM against Human PKK and 784 nM in test [1]. In addition, on human TK1, the Ki is greater than 10000 nM.
As to `Cn1cnc2c1CC[C@H]2NC(=O)c1cnn(Cc2cnc(N3CC4CC4C3)c(C#N)c2)c1` (stereo partly drawn) [Example 114, 1-[(6-{3-Azabicyclo[3.1.0]hexan-3-yl}-5-cyanopyridin-3-yl)methyl]-N-[(4R)-1-methyl-1H,4H,5H,6H-cyclopenta[d]imidazol-4-yl]-1H-pyrazole-4-carboxamide], the IC50 at Human PKK is 1.8 nM; in test [1] it was 14700 nM. The Ki at human TK1 was greater than 10000 nM.
On to `Cn1cnc2c1CC[C@H]2NC(=O)c1cnn(Cc2cnc(N3CC4CC4C3)cc2C(F)(F)F)c1` (stereo partly drawn) [Example 115, 1-[(6-{3-Azabicyclo[3.1.0]hexan-3-yl}-4-(trifluoromethyl)pyridin-3-yl)methyl]-N-[(4R)-1-methyl-1H,4H,5H,6H-cyclopenta[d]imidazol-4-yl]-1H-pyrazole-4-carboxamide], for which the IC50 on Human PKK is 4.1 nM; in test [1] it was 2660 nM. In addition, the Ki on human TK1 is greater than 10000 nM.
In the case of `Cc1c(Cn2cc(C(=O)N[C@@H]3CCc4c3ncn4C)cn2)cnc(N2CC3CC3C2)c1C#N` (stereo partly drawn) [Example 116, 1-[(6-{3-Azabicyclo[3.1.0]hexan-3-yl}-5-cyano-4-methylpyridin-3-yl)methyl]-N-[(4R)-1-methyl-1H,4H,5H,6H-cyclopenta[d]imidazol-4-yl]-1H-pyrazole-4-carboxamide], the IC50 amounted to 0.4 nM on Human PKK and 278 nM in test [1]. In addition, at human TK1, the affinity, expressed as Ki, was 871 nM.
With `Cn1cnc2c1CC[C@H]2NC(=O)c1cnn(Cc2ccc(N3CC4CC4C3)nc2C2CC2)c1` (stereo partly drawn) [Example 117, 1-[(6-{3-Azabicyclo[3.1.0]hexan-3-yl}-2-cyclopropylpyridin-3-yl)methyl]-N-[(4R)-1-methyl-1H,4H,5H,6H-cyclopenta[d]imidazol-4-yl]-1H-pyrazole-4-carboxamide], the concentration for half-maximal inhibition (IC50) against Human PKK was determined as 2.2 nM; in test [1] it was 1540 nM. Besides, on human TK1, the Ki was greater than 10000 nM.
In the case of `Cc1c(Cn2cnc(C(=O)N[C@@H]3CCc4c3ncn4C)c2)cnc(N2CC3CC3C2)c1C#N` (stereo partly drawn) [Example 118, 1-[(6-{3-Azabicyclo[3.1.0]hexan-3-yl}-5-cyano-4-methylpyridin-3-yl)methyl]-N-[(4R)-1-methyl-1H,4H,5H,6H-cyclopenta[d]imidazol-4-yl]-1H-imidazole-4-carboxamide], the IC50 is 0.3 nM against Human PKK and 157 nM in test [1]. Moreover, the Ki at human TK1 was greater than 10000 nM.
For the compound `Cc1nc(N2CC3CC3C2)ccc1Cn1cc(C(=O)N[C@@H]2CCc3c2ncn3C)c(C(F)(F)F)n1` (stereo partly drawn) [Example 119, 1-[(6-{3-Azabicyclo[3.1.0]hexan-3-yl}-2-methylpyridin-3-yl)methyl]-N-[(4R)-1-methyl-1H,4H,5H,6H-cyclopenta[d]imidazol-4-yl]-3-(trifluoromethyl)-1H-pyrazole-4-carboxamide], the IC50 at Human PKK was found to be 1.2 nM; in test [1] it was 1460 nM. At human TK1, this compound yielded a Ki of 1060 nM.
Turning to `Cn1cnc2c1CC[C@H]2NC(=O)c1cn(Cc2cnc(N3CC4CC4C3)cc2Cl)cn1` (stereo partly drawn) [Example 120, 1-[(6-{3-Azabicyclo[3.1.0]hexan-3-yl}-4-chloropyridin-3-yl)methyl]-N-[(4R)-1-methyl-1H,4H,5H,6H-cyclopenta[d]imidazol-4-yl]-1H-imidazole-4-carboxamide], the IC50 was determined as 2.4 nM against Human PKK and 934 nM in test [1]. Also, the Ki at human TK1 was greater than 10000 nM.
In the case of `Cn1cnc2c1CC[C@H]2NC(=O)c1cn(Cc2cnc(N3CC4CC4C3)cc2C(F)(F)F)cn1` (stereo partly drawn) [Example 121, 1-[(6-{3-Azabicyclo[3.1.0]hexan-3-yl}-4-(trifluoromethyl)pyridin-3-yl)methyl]-N-[(4R)-1-methyl-1H,4H,5H,6H-cyclopenta[d]imidazol-4-yl]-1H-imidazole-4-carboxamide], the figures for the IC50 (against Human PKK; in test [1]) were 1.6 nM and 514 nM, respectively. Besides, the Ki on human TK1 is greater than 10000 nM.
`Cn1cnc2c1CC[C@H]2NC(=O)c1cn(Cc2ccc(N3CC4CC4C3)nc2Cl)cn1` (stereo partly drawn) [Example 122, 1-[(6-{3-Azabicyclo[3.1.0]hexan-3-yl}-2-chloropyridin-3-yl)methyl]-N-[(4R)-1-methyl-1H,4H,5H,6H-cyclopenta[d]imidazol-4-yl]-1H-imidazole-4-carboxamide]: the IC50 amounted to 1.5 nM at Human PKK and 492 nM in test [1]. On human TK1, this compound gave a Ki greater than 10000 nM.

A word on the IC50: it is the midpoint of a concentration-inhibition curve. In general, Ki refers to the dissociation constant of the complex between target and ligand, obtained from inhibition or displacement. Low values mean higher affinity, high ones lower affinity.

Values taken from patent US12479827B2, “Heteroaromatic carboxamide derivatives as plasma kallikrein inhibitors” (Boehringer Ingelheim International GmbH, priority 2020, dated 2025).
